Drawing on US7449447B2, “Peptidomimetic NS3-serine protease inhibitors of hepatitis C virus” (priority 2003, dated 2008), this text covers Ki for 38 molecules.

Molecules are shown by their SMILES. *1 amine or outer side, *2 acyl side, *3 side chain or, on linkers, in order; H or OH if unused. Where a SMILES comes first, the peptide text is derived from it. [ ]: non-standard residue; d: D form. The star is where a group is joined. Pro(3R,4S-CMe2) = CC1(C)[C@@H]2[C@@H](C(=O)O)NC[C@@H]21; Abu(4,4-F2) = N[C@@H](CC(F)F)C(=O)O; Phg = N[C@H](C(=O)O)c1ccccc1; Tle = CC(C)(C)[C@H](N)C(=O)O; CO = O=C([*:1])[*:2]; NHtBu = CC(C)(C)N*; X2 = CC1(N*)CCCCC1

The first experiment deals with T1, HCV NS3/NS4a serine protease (Hepatitis C virus genotype 1b, UniProt P26663).
T1 construct: amino terminus of the NS3 protease domain (amino acids 3-181) with a tetrapeptide linker; made in house; host or cells: E. coli
T1 sequence (P26663 1013-1207, looked up, natural form): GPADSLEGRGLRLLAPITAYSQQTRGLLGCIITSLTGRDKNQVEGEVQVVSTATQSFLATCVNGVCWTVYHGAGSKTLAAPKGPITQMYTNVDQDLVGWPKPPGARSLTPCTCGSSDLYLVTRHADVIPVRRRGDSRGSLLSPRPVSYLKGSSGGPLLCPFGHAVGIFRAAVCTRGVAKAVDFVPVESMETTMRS
The experiment can be described thus: Spectrophotometric assay for HCV protease inhibitory activity (chromogenic ester substrates). In kind it is biochemical, hepatitis C virus (strain 1b). The conditions noted are these: Ki Rating, Table 2; single chain NS4A21-32-GSGS-NS3 3-181 protease, 30° C., pH 6.5. An outline of the steps:
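Single-chain NS4A(21-32)-GSGS-NS3(3-181) protease (genotype 1b) from E. coli was used at 1.3 nM in 25 mM MOPS pH 6.5 with 300 mM NaCl, 30 °C and 4% DMSO. Chromogenic ester substrate cleavage was followed as PAP release at 370 nm over 60 min. Ki was derived from vo/vi versus [I] plots assuming competitive inhibition.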
Regarding `CC(C)[C@H](NC(=O)N[C@H](C(=O)N1C[C@@H]2OC(C)(C)C[C@@H]2[C@H]1C(=O)N[C@@H](CC(F)F)C(=O)NCCc1ccccc1)C1CCCCC1)C(=O)OC(C)(C)C` [Example 152], the Ki is > 0.5 µM.

As for `COC(=O)c1ccc(CCNC(=O)C(CC(F)F)NC(=O)[C@@H]2[C@@H]3[C@H](CN2C(=O)[C@@H](NC(=O)N[C@H](C(=O)OC(C)(C)C)C(C)C)C(C)(C)C)C3(C)C)cc1` (some centres unmarked) [Example 138], the Ki was 0.1 to 0.5 µM. Consider `CC(C)[C@H](NC(=O)N[C@H](C(=O)N1C[C@H]2[C@@H]([C@H]1C(=O)NC(CC(F)F)C(=O)NCCc1ccc(C(=O)O)cc1)C2(C)C)C(C)(C)C)C(=O)OC(C)(C)C` (some centres unmarked) [Example 129], for which the Ki lay within 0.1 to 0.5 µM. As for `CN(C)C(=O)[C@@H](NC(=O)CNC(=O)[C@H](CC(F)F)NC(=O)[C@@H]1[C@@H]2[C@H](CN1C(=O)[C@@H](NC(=O)NC1(C)CCCCC1)C(C)(C)C)C2(C)C)c1ccccc1` [Example 172] ({X2-CO}-[Tle][Pro(3R,4S-CMe2)][Abu(4,4-F2)]G[Phg]-NMe2), the Ki is > 0.5 µM. Consider `CC(C)[C@H](NC(=O)N[C@H](C(=O)N1C[C@H]2[C@@H]([C@H]1C(=O)NC(CC(F)F)C(=O)O)C2(C)C)C(C)(C)C)C(=O)OC(C)(C)C` (some centres unmarked) [Example 159], for which the Ki is > 0.5 µM. For the molecule `CC(C)[C@H](NC(=O)N[C@H](C(=O)N1C[C@H]2[C@@H]([C@H]1C(=O)N[C@@H](CC(F)F)C(=O)NCCc1ccc(C(=O)O)cc1)C2(C)C)C(C)(C)C)C(=O)OC(C)(C)C` [Example 125], the Ki is 0.1 to 0.5 µM. As to `CN(C)C(=O)[C@@H](NC(=O)CNC(=O)[C@H](CC(F)F)NC(=O)[C@@H]1[C@@H]2[C@H](CN1C(=O)[C@@H](NC(=O)NC(C)(C)C)C(C)(C)C)C2(C)C)c1ccccc1` [Example 166] ({NHtBu-CO}-[Tle][Pro(3R,4S-CMe2)][Abu(4,4-F2)]G[Phg]-NMe2), the Ki was > 0.5 µM. Consider `CC(C)[C@H](NC(=O)N[C@H](C(=O)N1C[C@H]2[C@@H]([C@H]1C(=O)NC(CC(F)F)C(=O)NCCc1ccccc1)C2(C)C)C(C)(C)C)C(=O)O` (some centres unmarked) [Example 136], for which the Ki lay in the range of 0.1 to 0.5 µM. For the molecule `CC(C)(C)OC(=O)CCNC(=O)[C@H](CC(F)F)NC(=O)[C@@H]1[C@@H]2[C@H](CN1C(=O)[C@@H](NC(=O)OC(C)(C)C)C(C)(C)C)C2(C)C` [Example 162], the Ki was > 0.5 µM. Regarding `COC(=O)c1ccc(CCNC(=O)[C@H](CC(F)F)NC(=O)[C@@H]2[C@@H]3[C@H](CN2C(=O)[C@@H](NC(=O)OC(C)(C)C)C(C)(C)C)C3(C)C)cc1` [Example 148], the Ki is > 0.5 µM. For the molecule `CC(C)[C@H](NC(=O)N[C@H](C(=O)N1C[C@H]2[C@@H]([C@H]1C(=O)N[C@@H](CC(F)F)C(=O)NCCc1ccc(C(=O)O)cc1)C2(C)C)C(C)(C)C)C(=O)c1ccccc1` [Example 132], the Ki was in the range of 0.1 to 0.5 µM. Take `CN(C[C@@H](NC(=O)N[C@H](C(=O)N1C[C@H]2[C@@H]([C@H]1C(=O)NC(CC(F)F)C(=O)NCCc1ccc(C(N)=O)cc1)C2(C)C)C(C)(C)C)C(C)(C)C)S(C)(=O)=O` (some centres unmarked) [Example 128]: the Ki is 0.1 to 0.5 µM. For `CC(C)[C@H](NC(=O)N[C@H](C(=O)N1C[C@H]2[C@@H]([C@H]1C(=O)N[C@@H](CC(F)F)C(=O)NCCc1ccc(C(=O)N(C)C)cc1)C2(C)C)C(C)(C)C)C(=O)OC(C)(C)C` [Example 141], the Ki was 0.1 to 0.5 µM.

Staying with this experiment, now noted: Ki, Table 1; single chain NS4A21-32-GSGS-NS3 3-181 protease, 30° C., pH 6.5.
As for `CC(C)[C@H](NC(=O)N[C@H](C(=O)N1C[C@H]2[C@@H]([C@H]1C(=O)N[C@@H](CC(F)F)C(=O)NCCc1ccc(C(=O)O)cc1)C2(C)C)C(C)(C)C)C(=O)O` [Example 113], the Ki is 0.09 µM. Still for that read-out and setting: next, `COC(=O)c1ccc(CCNC(=O)[C@H](CC(F)F)NC(=O)[C@@H]2[C@@H]3[C@H](CN2C(=O)[C@@H](NC(=O)N[C@H](CN(C)S(C)(=O)=O)C(C)(C)C)C(C)(C)C)C3(C)C)cc1` [Example 103]: 0.022 µM; `COC(=O)c1ccc(CCNC(=O)[C@H](CC(F)F)NC(=O)[C@@H]2[C@@H]3[C@H](CN2C(=O)[C@@H](NC(=O)N[C@H](CN(C)S(C)(=O)=O)C(C)(C)C)C(C)(C)C)C3(C)C)c(Cl)c1` [Example 105]: 0.024 µM. With `CN(C[C@@H](NC(=O)N[C@H](C(=O)N1C[C@H]2[C@@H](C1C(=O)NC(CC(F)F)C(=O)NCCc1ccc(C(=O)O)cc1)C2(C)C)C(C)(C)C)C(C)(C)C)S(C)(=O)=O` (some centres unmarked) [Example 104], the Ki stood at 0.024 µM. Turning to `COC(=O)c1ccc(CCNC(=O)[C@H](CC(F)F)NC(=O)[C@@H]2[C@@H]3[C@H](CN2C(=O)[C@@H](NC(=O)N[C@H](CN2CCCS2(=O)=O)C(C)(C)C)C(C)(C)C)C3(C)C)c(Cl)c1` [Example 108], the Ki is 0.03 µM.

Still in this experiment, the particulars now being: Ki, Table 3; rating; single chain NS4A21-32-GSGS-NS3 3-181 protease, 30° C., pH 6.5.
Consider `CN(C[C@@H](NC(=O)N[C@H](C(=O)N1C[C@H]2[C@@H]([C@H]1C(=O)N[C@@H](CC(F)F)C(=O)NCCc1ccccn1)C2(C)C)C(C)(C)C)C(C)(C)C)S(C)(=O)=O` [Example 235], for which the Ki lay within 0.1 to 0.5 µM. `CN(CCc1ccccc1)C(=O)[C@H](CC(F)F)NC(=O)[C@@H]1[C@@H]2[C@H](CN1C(=O)[C@@H](NC(=O)N[C@H](CN(C)S(C)(=O)=O)C(C)(C)C)C(C)(C)C)C2(C)C` [Example 303]: the Ki is > 0.5 µM. `CN(C[C@@H](NC(=O)N[C@H](C(=O)N1C[C@H]2[C@@H]([C@H]1C(=O)N[C@@H](CC(F)F)C(=O)NCCc1ccccc1Br)C2(C)C)C(C)(C)C)C(C)(C)C)S(C)(=O)=O` [Example 289]: the Ki is < 0.1 µM. On the same count and under the same terms, next, `CCc1ccc(CCNC(=O)[C@H](CC(F)F)NC(=O)[C@@H]2[C@@H]3[C@H](CN2C(=O)[C@@H](NC(=O)N[C@H](CN(C)S(C)(=O)=O)C(C)(C)C)C(C)(C)C)C3(C)C)cc1` [Example 268]: < 0.1 µM; `COc1ccc(CCNC(=O)[C@H](CC(F)F)NC(=O)[C@@H]2[C@@H]3[C@H](CN2C(=O)[C@@H](NC(=O)N[C@H](CN(C)S(C)(=O)=O)C(C)(C)C)C(C)(C)C)C3(C)C)cc1Br` [Example 292]: < 0.1 µM. Same read-out and setting: to `CCOc1ccc(CCNC(=O)[C@H](CC(F)F)NC(=O)[C@@H]2[C@@H]3[C@H](CN2C(=O)[C@@H](NC(=O)N[C@H](CN(C)S(C)(=O)=O)C(C)(C)C)C(C)(C)C)C3(C)C)cc1` [Example 274] belongs < 0.1 µM. The same measure, in the same setting: next, `CN(C[C@@H](NC(=O)N[C@H](C(=O)N1C[C@H]2[C@@H]([C@H]1C(=O)N[C@@H](CC(F)F)C(=O)NCCc1ccccc1F)C2(C)C)C(C)(C)C)C(C)(C)C)S(C)(=O)=O` [Example 263]: < 0.1 µM.

For the molecule `CN(C[C@@H](NC(=O)N[C@H](C(=O)N1C[C@H]2[C@@H]([C@H]1C(=O)N[C@@H](CC(F)F)C(=O)NCCc1c(F)cccc1Cl)C2(C)C)C(C)(C)C)C(C)(C)C)S(C)(=O)=O` [Example 275], the Ki is < 0.1 µM.

Regarding `CN(C[C@@H](NC(=O)N[C@H](C(=O)N1C[C@H]2[C@@H]([C@H]1C(=O)N[C@@H](CC(F)F)C(=O)NCCc1ccc(Cl)cc1)C2(C)C)C(C)(C)C)C(C)(C)C)S(C)(=O)=O` [Example 250], the inhibitory constant (Ki) is < 0.1 µM. `CN(C[C@@H](NC(=O)N[C@H](C(=O)N1C[C@H]2[C@@H]([C@H]1C(=O)N[C@@H](CC(F)F)C(=O)N[C@H]1CCCC[C@H]1OCc1ccccc1)C2(C)C)C(C)(C)C)C(C)(C)C)S(C)(=O)=O` [Example 256]: the Ki is > 0.5 µM. For `CC(CO)NC(=O)[C@H](CC(F)F)NC(=O)[C@@H]1[C@@H]2[C@H](CN1C(=O)[C@@H](NC(=O)N[C@H](CN(C)S(C)(=O)=O)C(C)(C)C)C(C)(C)C)C2(C)C` (some centres unmarked) [Example 230], the Ki was > 0.5 µM.

In the case of `CN(C[C@@H](NC(=O)N[C@H](C(=O)N1C[C@H]2[C@@H]([C@H]1C(=O)N[C@@H](CC(F)F)C(=O)N[C@H]1C[C@@H]1c1ccccc1)C2(C)C)C(C)(C)C)C(C)(C)C)S(C)(=O)=O` [Example 293], the Ki is > 0.5 µM. Same read-out and setting: next, `CN(C[C@@H](NC(=O)N[C@H](C(=O)N1C[C@H]2[C@@H]([C@H]1C(=O)N[C@@H](CC(F)F)C(=O)NC1CCc3ccccc31)C2(C)C)C(C)(C)C)C(C)(C)C)S(C)(=O)=O` (some centres unmarked) [Example 217]: > 0.5 µM; `COc1cc(CCNC(=O)[C@H](CC(F)F)NC(=O)[C@@H]2[C@@H]3[C@H](CN2C(=O)[C@@H](NC(=O)N[C@H](CN(C)S(C)(=O)=O)C(C)(C)C)C(C)(C)C)C3(C)C)ccc1O` [Example 294]: < 0.1 µM; `CC(NC(=O)[C@H](CC(F)F)NC(=O)[C@@H]1[C@@H]2[C@H](CN1C(=O)[C@@H](NC(=O)N[C@H](CN(C)S(C)(=O)=O)C(C)(C)C)C(C)(C)C)C2(C)C)c1ccccc1` (some centres unmarked) [Example 215]: > 0.5 µM. Still for that read-out and setting: to `CC(Cc1ccc(Cl)cc1)NC(=O)[C@H](CC(F)F)NC(=O)[C@@H]1[C@@H]2[C@H](CN1C(=O)[C@@H](NC(=O)N[C@H](CN(C)S(C)(=O)=O)C(C)(C)C)C(C)(C)C)C2(C)C` (some centres unmarked) [Example 296] belongs 0.1 to 0.5 µM. Regarding `COc1cc(CCNC(=O)[C@H](CC(F)F)NC(=O)[C@@H]2[C@@H]3[C@H](CN2C(=O)[C@@H](NC(=O)N[C@H](CN(C)S(C)(=O)=O)C(C)(C)C)C(C)(C)C)C3(C)C)cc(OC)c1O` [Example 297], the Ki lay within 0.1 to 0.5 µM. On to `CN(C[C@@H](NC(=O)N[C@H](C(=O)N1C[C@H]2[C@@H]([C@H]1C(=O)N[C@@H](CC(F)F)C(=O)NCCc1ccc(Cl)c(Cl)c1)C2(C)C)C(C)(C)C)C(C)(C)C)S(C)(=O)=O` [Example 285], for which the Ki was < 0.1 µM.

Take `CC(NC(=O)[C@H](CC(F)F)NC(=O)[C@@H]1[C@@H]2[C@H](CN1C(=O)[C@@H](NC(=O)N[C@H](CN(C)S(C)(=O)=O)C(C)(C)C)C(C)(C)C)C2(C)C)c1ccc(Cl)cc1` (some centres unmarked) [Example 226]: the Ki is > 0.5 µM. For the molecule `COc1ccc(CCNC(=O)[C@H](CC(F)F)NC(=O)[C@@H]2[C@@H]3[C@H](CN2C(=O)[C@@H](NC(=O)N[C@H](CN(C)S(C)(=O)=O)C(C)(C)C)C(C)(C)C)C3(C)C)cc1Cl` [Example 281], the Ki is < 0.1 µM.
